Measured values reported in patent US20180303853A1, “COMPOSITIONS AND METHODS FOR TREATING BACTERIAL INFECTIONS USING CEFTAROLINE” (priority 2017, published 2018).

Tests used:
[1] = tested on: MSSA (methicillin-susceptible); experiment: Phase 3 cSSSI studies, clinical cure by infecting pathogen; type: in vivo, Staphylococcus aureus; settings: ME patients
Procedure: (§1) A total of 1396 adults with clinically documented complicated skin and skin structure infections (cSSSI) were enrolled in two randomized, multi-center, multinational, double-blind, studies comparing 600 mg ceftaroline fosamil administered intravenously over 1 hour every 12 hours to vancomycin plus aztreonam [1 g vancomycin administered intravenously over 1 hour followed by 1 g aztreonam administered intravenously over 1 hour every 12 hours]. Patients with cSSSI (deep/extensive cellulitis, a major abscess, a wound infection [surgical or traumatic], infected insect bites, burns or ulcers, lower extremity infection in patients with diabetes mellitus or peripheral vascular disease), were enrolled in the studies. Treatment duration was […] days. A switch to oral therapy was not allowed. The Modified Intent-to-Treat (MITT) population included all patients who received any amount of study drug according to their randomized treatment group.
(§2) The primary efficacy endpoint was clinical response at the Test of Cure (TOC) visit in the co-primary CE and MITT populations (Table 2). […] In a subgroup analysis (CE population), the comparative clinical cure rates between the ceftaroline group and the vancomycin plus aztreonam group were not affected by age, gender, race, ethnicity, or weight.

[2] = tested on: Community-Acquired Bacterial Pneumonia (CABP); experiment: Two Phase 3 studies in CABP, clinical cure at TOC (single and integrated/combined); type: in vivo, human; settings: for Treatment Difference (2-sided 95% CI): vs Ceftriaxone
Procedure: (§3) In both treatment groups of CABP Study 1, two doses of oral clarithromycin (500 mg q12 h), were administered as adjunctive therapy starting on Study Day 1. No adjunctive macrolide therapy was used in CABP Study 2. Patients with new or progressive pulmonary infiltrate(s) on chest radiography and clinical signs and symptoms consistent with CABP with the need for hospitalization and IV therapy were enrolled in the studies. Treatment duration was 5 to 7 days. A switch to oral therapy was not allowed. The Modified Intent-to-Treat Efficacy (MITTE) population, included all patients who received any amount of study drug according to their randomized, treatment group and were in PORT (Pneumonia Outcomes Research Team) Risk Class III or IV.
(§4) The primary efficacy endpoint was the clinical response at the Test of Cure (TOC) visit in the co-primary Ce and MITTE populations (Table 4).

[3] = Four pooled controlled comparative Phase 3 clinical studies (two cSSSI, two CABP), safety; settings: pooled Phase 3 studies
Procedure: Ceftaroline fosamil was evaluated in four controlled comparative Phase 3 clinical studies (two in cSSSI and two in CABP).

[4] = tested on: CYP1A1, CYP1A2, CYP2A6, CYP2B6, CYP2C8, CYP2C9, CYP2C19, CYP2D6, CYP2E1 and CYP3A4; experiment: Cytochrome P450 inhibition in human liver microsomes; type: in vitro ADME; settings: human liver microsomes
[5] = Pharmacokinetics of ceftaroline after IV infusion of ceftaroline fosamil in adults with normal renal function
[6] = tested on: MSSA (methicillin-susceptible); experiment: Integrated Phase 3 CABP studies, clinical cure by infecting pathogen; type: in vivo, Staphylococcus aureus; settings: ME patients
Procedure: as §3, §4

[7] = tested on: MRSA (methicillin-resistant); type: in vivo, Staphylococcus aureus; settings: cSSSI, ME patients
Procedure: as §1, §2

[8] = tested on: complicated skin and skin structure infections (cSSSI); experiment: Two Phase 3 studies in cSSSI, clinical cure at TOC; type: in vivo, human; settings: Integrated Studies, CE population, 5 to 14 days of therapy
[9] = tested on: complicated skin and skin structure infections (cSSSI); experiment: Two Phase 3 studies in cSSSI, clinical cure at TOC; type: in vivo, human; settings: for Treatment Difference (2-sided 95% CI): vs Vancomycin/Aztreonam
Procedure: as §1, §2

[10] = Excretion after single IV dose of radiolabeled ceftaroline fosamil in healthy male adults; type: in vivo, human; settings: single 600 mg IV dose of radiolabeled ceftaroline fosamil
Procedure: Following administration of a single 600 mg IV dose of radiolabeled ceftaroline fosamil to healthy male adults, approximately 87% of radioactivity was recovered in urine and 6% in feces. The majority of the radioactivity (˜90%) was recovered within 48 hours. Of the radioactivity recovered in urine, approximately 64% was excreted as ceftaroline and approximately 2% as ceftaroline-M-1.

[11] = tested on: Streptococcus anginosus group; experiment: Phase 3 cSSSI studies, clinical cure by infecting pathogen; type: in vivo, S. anginosus, S. intermedius, and S. constellatus; settings: ME patients
Procedure: as §1, §2

[12] = tested on: CYP1A2, CYP2B6, CYP2C8, CYP2C9, CYP2CI9, or CYP3A4/5; experiment: CYP induction in human hepatocytes; type: in vitro ADME; settings: human hepatocytes
[13] = Aqueous solubility of ceftaroline fosamil
Klebsiella pneumoniae [14] = experiment: Phase 3 cSSSI studies, clinical cure by infecting pathogen; type: in vivo; settings: ME patients
Procedure: as §1, §2

Escherichia coli [15] = experiment: as above; type: in vivo; settings: ME patients
Procedure: as §1, §2

[16] = tested on: Streptococcus dysgalactiae; experiment: as above; type: in vivo; settings: ME patients
Procedure: as §1, §2

Morganella morganii = experiment: as above; type: in vivo; settings: ME patients
Procedure: as §1, §2

Streptococcus agalactiae = experiment: as above; type: in vivo; settings: ME patients
Procedure: as §1, §2

Klebsiella oxytoca = experiment: as above; type: in vivo; settings: ME patients
Procedure: as §1, §2

Streptococcus pyogenes = experiment: as above; type: in vivo; settings: ME patients
Procedure: as §1, §2

Staphylococcus aureus [17] = experiment: as above; type: in vivo; settings: ME patients
Procedure: as §1, §2

[18] = tested on: MDRSP (multidrug-resistant); type: in vivo, Streptococcus pneumoniae; settings: CABP, ME patients
Procedure: as §3, §4

Klebsiella pneumoniae [19] = experiment: Integrated Phase 3 CABP studies, clinical cure by infecting pathogen; type: in vivo; settings: ME patients
Procedure: as §3, §4

Escherichia coli [20] = experiment: as above; type: in vivo; settings: ME patients
Procedure: as §3, §4

Streptococcus pneumoniae = experiment: as above; type: in vivo; settings: ME patients
Procedure: as §3, §4

Staphylococcus aureus [21] = experiment: as above; type: in vivo; settings: ME patients
Procedure: as §3, §4

Haemophilus influenzae = experiment: as above; type: in vivo; settings: ME patients
Procedure: as §3, §4

CCO/N=C(\C(=O)N[C@@H]1C(=O)N2C(C(=O)[O-])=C(Sc3nc(-c4cc[n+](C)cc4)cs3)CS[C@H]12)c1nsc(NP(=O)(O)O)n1 [Ceftaroline fosamil, (6R,7R)-7-{(2Z)-2-(ethoxyimino)-2-[5-(phosphonoamino)-1,2,4-thiadiazol-3-yl]acetamido}-3-{[4-(1-methylpyridin-1-ium-4-yl)-1,3-thiazol-2-yl]sulfanyl}-8-oxo-5-thia-1-azabicyclo[4.2.0]oct-2-ene-2-carboxylate]
Clinical cure rate by infecting pathogen [1]: 212/228 (93.0%) | Clinical cure rate at TOC ([2]; CABP Study 1, CE population): 194/224 (86.6%) | Clinical cure rate at TOC ([2]; CABP Study 1, MITTE population): 244/291 (83.8%) | Clinical cure rate at TOC ([2]; CABP Study 2, CE population): 193/235 (82.1%) | Clinical cure rate at TOC ([2]; CABP Study 2, MITTE population): 235/289 (81.3%) | Clinical cure rate at TOC ([2]; Integrated Studies, CE population, 5 to 7 days of therapy): 387/459 (84.3%) | Clinical cure rate at TOC ([2]; Integrated Studies, MITTE population): 479/580 (82.6%) | Treatment Difference (2-sided 95% CI) ([2]; CABP Study 1, CE): 8.4 (1.4, 15.4) | Treatment Difference (2-sided 95% CI) ([2]; CABP Study 1, MITTE): 6.2 (−0.2, 12.6) | Treatment Difference (2-sided 95% CI) ([2]; CABP Study 2, CE): 4.9 (−2.5, 12.5) | Treatment Difference (2-sided 95% CI) ([2]; CABP Study 2, MITTE): 5.9 (−1.0, 12.7) | Treatment Difference (2-sided 95% CI) ([2]; Integrated Studies, CE): 6.7 (1.6, 11.8) | Treatment Difference (2-sided 95% CI) ([2]; Integrated Studies, MITTE): 6.0 (1.4, 10.7) | Adverse reaction: Constipation [3]: 2% | Adverse reaction: Diarrhea [3]: 5% | Adverse reaction: Headache [3]: 4% | Adverse reaction: Hypokalemia [3]: 2% | Adverse reaction: Increased transaminases [3]: 2% | Adverse reaction: Insomnia [3]: 3% | Adverse reaction: Nausea [3]: 4% | Adverse reaction: Phlebitis [3]: 2% | Adverse reaction: Pruritus [3]: 2% | Adverse reaction: Rash [3]: 3% | Adverse reaction: Vomiting [3]: 2% | Serious adverse events [3]: 8% | discontinuation due to hypersensitivity (most common adverse event leading to discontinuation) [3]: 0.3% | treatment discontinuations due to adverse events [3]: 4% | inhibition of major cytochrome P450 isoenzymes [4]: neither ceftaroline fosamil nor ceftaroline inhibits | accumulation following multiple IV infusions ([5]; 600 mg every 8 or 12 hours for up to 14 days, normal renal function): No appreciable accumulation | conversion of prodrug in plasma ([5]; appeared to be mediated by a phosphatase enzyme): rapidly converted into bioactive ceftaroline | Clinical cure rate by infecting pathogen [6]: 18/25 (72.0%) | Clinical cure rate by infecting pathogen [7]: 142/152 (93.4%) | Clinical cure rate at TOC [8]: 559/610 (91.6) % | Clinical cure rate at TOC ([9]; Integrated Studies, MITT population): 595/693 (85.9) % | Clinical cure rate at TOC ([9]; cSSSI Study 1, CE population): 288/316 (91.1) % | Clinical cure rate at TOC ([9]; cSSSI Study 1, MITT population): 304/351 (86.6) % | Clinical cure rate at TOC ([9]; cSSSI Study 2, CE population): 271/294 (92.2) % | Clinical cure rate at TOC ([9]; cSSSI Study 2, MITT population): 291/342 (85.1) % | Treatment Difference (2-sided 95% CI) ([9]; Integrated Studies, CE): −1.1 (−4.2, 2.0) | Treatment Difference (2-sided 95% CI) ([9]; Integrated Studies, MITT): 0.3 (−3.4, 4.0) | Treatment Difference (2-sided 95% CI) ([9]; cSSSI Study 1, CE): −2.2 (−6.6, 2.1) | Treatment Difference (2-sided 95% CI) ([9]; cSSSI Study 1, MITT): 1.0 (−4.2, 6.2) | radioactivity recovered in feces [10]: ~6% | radioactivity recovered in urine [10]: approximately 87% | radioactivity recovered within 48 hours [10]: ~90% | Clinical cure rate by infecting pathogen [11]: 12/13 (92.3%) | induction of CYP isoenzymes [12]: not inducers | aqueous solubility [13]: 8-30 mg per ml | Clinical cure rate by infecting pathogen (Klebsiella pneumoniae [14]): 17/18 (94.4%) | Clinical cure rate by infecting pathogen (Escherichia coli [15]): 20/21 (95.2%) | Clinical cure rate by infecting pathogen [16]: 13/13 (100%) | Clinical cure rate by infecting pathogen (Morganella morganii): 11/12 (91.7%) | Clinical cure rate by infecting pathogen (Streptococcus agalactiae): 21/22 (95.5%) | Clinical cure rate by infecting pathogen (Klebsiella oxytoca): 10/12 (83.3%) | Clinical cure rate by infecting pathogen (Streptococcus pyogenes): 56/56 (100%) | Clinical cure rate by infecting pathogen (Staphylococcus aureus [17]): 352/378 (93.1%) | Clinical cure rate by infecting pathogen [18]: 4/4 (100%) | Clinical cure rate by infecting pathogen (Klebsiella pneumoniae [19]): 13/13 (100%) | Clinical cure rate by infecting pathogen (Escherichia coli [20]): 10/12 (83.3%) | Clinical cure rate by infecting pathogen (Streptococcus pneumoniae): 54/63 (85.7%) | Clinical cure rate by infecting pathogen (Staphylococcus aureus [21]): 18/25 (72.0%) | Clinical cure rate by infecting pathogen (Haemophilus influenzae): 15/18 (83.3%)
